Results reported in article PMC12706802, “Ortho-Hydroxyanilides: Slow-Acting, Selective Histone Deacetylase 1/2 Inhibitors Suitable for Photocaging Applications” (ACS Pharmacology & Translational Science, 2025).
Where “and” joins values, the source holds several entries; their conditions need not be identical. Identical values can stand only once. Like-named read-outs stand apart in the source and are kept apart here.

What was measured:
[1] = tested on: HDACs in MDA-MB-231 cells; assay: HDAC whole cell inhibition assay; conditions: Homo sapiens, MDA-MB-231, light or radiation study, 18 h, read-out: whole-cell HDAC inhibition EC50, MDA-MB-231
Procedure: (§1) Furthermore, we determined the EC50 values in the nontumorigenic cell line HEK293 and in the hematological cancer cell line MM.1S.
(§2) For this purpose, 3-fold serial dilutions of test compounds (DMSO) were prepared and added at a volume of 0.5 μL to the cells. […] MAL was used in a final concentration of 0.3 mM in the respective cell culture medium with 0.5% IGEPAL CA-630 (Catalog# J61055, Alfa Aesar). […] The obtained data were normalized to vehicle treated cells, considering 100% enzyme activity. IC50 values were determined by generating dose–response curves using the four-parameter logistic equation (GraphPad Prism 8.0, San Diego, USA).

HDACs in HEK293 cells = assay: HDAC whole cell inhibition assay; conditions: Homo sapiens, HEK293, read-out: whole-cell HDAC inhibition EC50, HEK293
Procedure: as §1, §2

[2] = tested on: Ac-histone H3 (class I HDACs); assay: Immunoblot analysis of MV-3 cell lysates incl. wash out; format: cell-based, human; conditions: for histone H3 acetylation after wash out (immunoblot): MV-3, 5 μM for 48 h, then up to 6 h without inhibitor; for acetylation level of histone H3 (immunoblot): MV-3, 5 μM, 24–72 h, substantial increase after 72 h
Procedure: The impact on the acetylation levels of the HDAC substrates Ac-histone H3 (class I HDACs) and Ac-α-tubulin (HDAC6) was analyzed by immunoblot analysis.
6 Immunoblot analysis of MV-3 cell lysates. […] Representative images from at least three replicates are shown. DMSO (0.025%) was used as vehicle control and GAPDH as loading control.
After that, cells were treated with a concentration of 5 μM of HDAC inhibitor or vehicle (DMSO) for additional 24 h, 48 h or 72 h. For cell lysis the cells were initially washed with PBS and detached using a scraper. The cells were then centrifuged at 1200 rpm for 4 min at 4 °C, followed by two additional washing steps. After that, the cell pellet was resuspended in 100 μL of freshly prepared lysis buffer and incubated on ice for 30 min with vortexing every 10 min. The lysis buffer consisted of Invitrogen cell extraction buffer (10 mM Tris, pH 7.4, 100 mM NaCl, […], […], 1 mM NaF, 20 mM Na4P2O7, 2 mM Na3VO4, 1% Triton × −100, 10% glycerol, 0.1% SDS, 0.5% deoxycholate; Catalog# FNN0011, Thermo Fisher Scientific Inc., Waltham, MA, USA), supplemented with 0.1 mM PMSF (Catalog# 10837091001, Sigma-Aldrich, St. Louis, MO, USA) and Halt Protease Inhibitor (100×) (Catalog# 78429, Life Technologies GmbH Carlsbad, CA, USA). Finally, the samples were centrifuged at 14,000 rpm and 4 °C for 30 min and the supernatant was collected. Protein quantification was performed by using BCA protein assay reagents (Catalog# 23225, Thermo Fisher Scientific Inc., Waltham, MA, USA). Lysates were mixed with Laemmli sample buffer 2× concentrate (Catalog# S3401-10VL, Sigma-Aldrich, St. Louis, MO, USA) to a protein concentration of 1.25 μg/μL and denatured at 95 °C for 5 min. Subsequently, SDS-PAGE was performed with 2–20% Mini-PROTEAN TGX stain-free gels (Catalog# 456809, Bio-Rad, Hercules, CA, USA) at 200 V for 45 min. Proteins were then transferred to a Trans-Blot Turbo-PVDF membrane (Catalog# 1704156, Bio-Rad, Hercules, CA, USA) with the Trans-Blot Turbo Transfer System (Catalog# 1704150, Bio-Rad, Hercules, CA, USA) at 25 V for 5 min. The membrane was blocked with a solution of 5% milk powder in TBST (Tris-buffered saline-Tween 20 0.2%) for 60 min at room temperature. After three washing cycles for 10 min with TBST, the membrane was incubated with the respective antibody and a mouse anti-GAPDH antibody (Catalog# T0004, Affinity Biosciences, Cincinnati, OH, USA; 1:20,000 dilution) at room temperature for 60 min and 4 °C overnight. […] After washing off the secondary antibody, protein bands were detected via chemiluminescence using Clarity Western ECL substrate (Catalog# 1705061, Bio-Rad, Hercules, CA, USA). […]

HDAC1 [3] = conditions: cited from earlier work
HDAC1 [4] = biological target: HDAC1 (Homo sapiens, UniProt Q13547); assay: IC50-shift (preincubation time) experiments
Chain of HDAC1 (Homo sapiens, UniProt Q13547) (Q13547 whole entry): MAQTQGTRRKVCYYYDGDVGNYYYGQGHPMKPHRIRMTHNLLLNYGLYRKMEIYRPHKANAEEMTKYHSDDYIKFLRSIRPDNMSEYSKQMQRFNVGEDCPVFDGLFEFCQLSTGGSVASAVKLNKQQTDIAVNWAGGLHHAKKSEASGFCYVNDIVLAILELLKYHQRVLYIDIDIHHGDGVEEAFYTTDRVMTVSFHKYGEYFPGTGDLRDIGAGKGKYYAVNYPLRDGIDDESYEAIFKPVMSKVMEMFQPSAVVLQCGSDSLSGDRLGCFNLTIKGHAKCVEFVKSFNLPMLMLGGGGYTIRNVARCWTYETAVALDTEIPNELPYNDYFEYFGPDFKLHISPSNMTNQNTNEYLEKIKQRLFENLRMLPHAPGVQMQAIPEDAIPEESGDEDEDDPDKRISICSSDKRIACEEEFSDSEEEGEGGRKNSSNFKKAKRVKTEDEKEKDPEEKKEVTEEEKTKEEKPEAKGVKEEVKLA
Procedure: (§3) First, 3-fold serial dilutions of test compounds were prepared in DMSO. […] IC50 values were determined by generating normalized dose–response curves using the three-parameter logistic equation (GraphPad Prism 8.0, San Diego, USA).
(§4) For IC50-shift experiments the preincubation time for the HDAC enzyme inhibition assay was varied. […] Afterward, the assay was continued as described in the HDAC enzyme inhibition assay.

HDAC2 = HDAC2 (Homo sapiens, UniProt Q92769); assay: IC50-shift (preincubation time) experiments
Chain of HDAC2 (Q92769 whole entry): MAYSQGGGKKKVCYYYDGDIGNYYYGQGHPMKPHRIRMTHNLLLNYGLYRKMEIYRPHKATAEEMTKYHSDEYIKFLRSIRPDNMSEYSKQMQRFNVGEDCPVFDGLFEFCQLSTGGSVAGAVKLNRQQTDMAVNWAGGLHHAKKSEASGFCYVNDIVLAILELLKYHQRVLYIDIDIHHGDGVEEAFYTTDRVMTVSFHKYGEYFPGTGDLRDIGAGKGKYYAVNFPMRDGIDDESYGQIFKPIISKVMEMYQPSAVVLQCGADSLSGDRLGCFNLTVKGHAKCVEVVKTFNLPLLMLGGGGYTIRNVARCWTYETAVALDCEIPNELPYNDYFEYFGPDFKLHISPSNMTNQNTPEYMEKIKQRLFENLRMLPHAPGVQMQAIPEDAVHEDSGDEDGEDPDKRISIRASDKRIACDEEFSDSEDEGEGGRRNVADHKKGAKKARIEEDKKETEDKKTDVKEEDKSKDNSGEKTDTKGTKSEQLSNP
Procedure: as §3, §4

human recombinant HDAC3 = human recombinant HDAC3 (Homo sapiens, UniProt O15379); assay: Fluorescence-based biochemical HDAC enzyme inhibition assay (ZMAL substrate); conditions: HDAC3 IC50, preincubation of enzyme and inhibitor 1 h at RT; no irradiation
Chain of human recombinant HDAC3 (O15379 whole entry): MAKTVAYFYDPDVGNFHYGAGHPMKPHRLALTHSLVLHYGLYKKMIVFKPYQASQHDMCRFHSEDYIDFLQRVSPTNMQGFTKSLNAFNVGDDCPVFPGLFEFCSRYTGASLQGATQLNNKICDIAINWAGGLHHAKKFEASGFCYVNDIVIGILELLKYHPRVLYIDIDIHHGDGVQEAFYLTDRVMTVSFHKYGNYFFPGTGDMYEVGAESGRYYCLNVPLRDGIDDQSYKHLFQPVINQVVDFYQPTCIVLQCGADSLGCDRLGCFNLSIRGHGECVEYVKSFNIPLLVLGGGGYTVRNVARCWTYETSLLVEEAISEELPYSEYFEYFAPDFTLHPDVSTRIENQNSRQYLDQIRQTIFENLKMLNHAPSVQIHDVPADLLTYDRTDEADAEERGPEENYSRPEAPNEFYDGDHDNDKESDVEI
Chain of human recombinant HDAC3 (Q9Y618 395-489 partner limits assumed): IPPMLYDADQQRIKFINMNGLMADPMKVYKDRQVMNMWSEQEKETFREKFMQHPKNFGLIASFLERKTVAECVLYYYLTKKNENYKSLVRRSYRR
Procedure: First, the inhibitory activity and isoform selectivity of compounds and controls (see Figure ) was evaluated in a fluorescence-based biochemical HDAC inhibition assay against recombinant HDAC1, HDAC2, HDAC3, and HDAC6. […] First, 3-fold serial dilutions of test compounds were prepared in DMSO. […] IC50 values were determined by generating normalized dose–response curves using the three-parameter logistic equation (GraphPad Prism 8.0, San Diego, USA).

IC50 (HDAC1 [4]; HDAC1 IC50, preincubation time 5 min) [nM]	IC50 (HDAC1 [4]; HDAC1 IC50, preincubation time 30 min) [nM]	IC50 (HDAC1 [4]; HDAC1 IC50, preincubation time 60 min) [nM]	IC50 (HDAC1 [4]; HDAC1 IC50, preincubation time 120 min) [nM]	IC50 (HDAC2; HDAC2 IC50, preincubation time 5 min) [nM]	IC50 (HDAC2; HDAC2 IC50, preincubation time 30 min) [nM]	IC50 (HDAC2; HDAC2 IC50, preincubation time 60 min) [nM]	IC50 (HDAC2; HDAC2 IC50, preincubation time 120 min) [nM]	IC50 (human recombinant HDAC3)	SMILES	EC50 [1] [nM]	EC50 (HDACs in HEK293 cells) [nM]	histone H3 acetylation after wash out (immunoblot) [2]	acetylation level of histone H3 (immunoblot) [2]	IC50 (HDAC1 [3]; literature value for Cpd-60, ref number not given) [nM]	IC50 (HDAC1 [3]; previously described, ref Methot et al.) [nM]
–	–	–	–	–	–	–	–	–	CC(=O)Nc1ccc(C(=O)Nc2cc(-c3cccs3)ccc2N)cc1 [Cpd-60, reference compound]	87 ± 8	178 ± 23	persistent histone H3 acetylation	hyperacetylation of histone H3	7	–
55 ± 7	36 ± 4	34 ± 5	25 ± 3	82 ± 12	83 ± 3	75 ± 5	49 ± 9	4300 nM and 6640 nM	CC(=O)Nc1ccc(C(=O)Nc2cc(-c3ccccc3)ccc2O)cc1 [ST13, 4-Acetamido-N-(4-hydroxy-[1,1′-biphenyl]-3-yl)-benzamide]	577 ± 97	333 ± 64	persistent histone H3 acetylation	hyperacetylation of histone H3	–	18
